Data: PMC6308799, “In vitro and in vivo Inhibitory Activity of NADPH Against the AmpC BER Class C β-Lactamase” (Frontiers in Cellular and Infection Microbiology, 2018)

Assays:
AmpC EC2 [1] = biological target: T1, AmpC EC2 (Escherichia coli, UniProt A7TUE6); assay: nitrocefin hydrolysis initial velocity at […] ([…] inhibition range for the set); type: biochemical
AmpC EC2 [2] = biological target: T1, AmpC EC2; assay: nitrocefin hydrolysis initial velocity at […] NADPH; type: biochemical
AmpC EC2 [3] = biological target: T1, AmpC EC2; assay: ITC (KD […]); also steady-state nitrocefin kinetics (competitive, Ki […]); type: binding
CMY-2 = biological target: T2, CMY-2 (Klebsiella pneumoniae, UniProt Q48434); assay: nitrocefin hydrolysis initial velocity at […] NADPH; type: biochemical
T2 construct: gene blaCMY-2

CMY-10 = biological target: T3, CMY-10 (Klebsiella aerogenes, UniProt Q99QC1); assay: nitrocefin hydrolysis initial velocity at […] NADPH; type: biochemical
T3 construct: gene blaCMY-10

Cc1cc2nc3c(=O)[nH]c(=O)nc-3n(C[C@H](O)[C@H](O)[C@H](O)COP(=O)(O)OP(=O)(O)OC[C@H]3O[C@@H](n4cnc5c(N)ncnc54)[C@H](O)[C@@H]3O)c2cc1C [FAD]
nitrocefin hydrolysis initial velocity at 2 mM (~15-55% inhibition range for the) (AmpC EC2 [1]): all tested adenosine dinucleotides including FAD, NAD, NADP, and NADPH reduced the initial velocity of nitrocefin hydrolysis catalyzed by AmpC BER

NC(=O)C1=CN([C@@H]2O[C@H](COP(=O)(O)OP(=O)(O)OC[C@H]3O[C@@H](n4cnc5c(N)ncnc54)[C@H](OP(=O)(O)O)[C@@H]3O)[C@@H](O)[C@H]2O)C=CC1 [NADPH]
nitrocefin hydrolysis initial velocity at 2 mM NADPH (AmpC EC2 [2]): NADPH also reduced the initial velocity of nitrocefin hydrolysis catalyzed by other class C β-lactamases including ACC-1, AmpC EC2, CMY-2, and CMY-10 | Kd (AmpC EC2 [3]): 40 µM | nitrocefin hydrolysis initial velocity at 2 mM NADPH (CMY-2): NADPH also reduced the initial velocity of nitrocefin hydrolysis catalyzed by other class C β-lactamases including ACC-1, AmpC EC2, CMY-2, and CMY-10 | nitrocefin hydrolysis initial velocity at 2 mM NADPH (CMY-10): NADPH also reduced the initial velocity of nitrocefin hydrolysis catalyzed by other class C β-lactamases including ACC-1, AmpC EC2, CMY-2, and CMY-10

NC(=O)c1ccc[n+]([C@@H]2O[C@H](COP(=O)([O-])OP(=O)(O)OC[C@H]3O[C@@H](n4cnc5c(N)ncnc54)[C@H](O)[C@@H]3O)[C@@H](O)[C@H]2O)c1 [NAD]
nitrocefin hydrolysis initial velocity at 2 mM (~15-55% inhibition range for the) (AmpC EC2 [1]): all tested adenosine dinucleotides including FAD, NAD, NADP, and NADPH reduced the initial velocity of nitrocefin hydrolysis catalyzed by AmpC BER
